Data from article PMC12116762, “Topobexin targets the Topoisomerase II ATPase domain for beta isoform-selective inhibition and anthracycline cardioprotection” (Nature Communications, 2025).
Values joined by “and” are separate entries in the source; they are usually repeats but may differ in a detail not shown here. Equal entries are not always repeated.

Assays:
[1] = target: T1, recombinant human TOP2A (Homo sapiens, UniProt P11388); assay: In vitro ATPase activity of TOP2A (coupled assay); type: biochemical; details: n=3
T1 construct: Using recombinant full-length human TOP2A and TOP2B enzymes; YFP (N, cleaved yes); made in house; host or cells: HEK293F
Protocol: (§1) Topoisomerase proteins were diluted to 500 nM in storage buffer containing 20 mM HEPES pH 7.5, 500 mM NaCl, 0.5 mM TCEP, 25% glycerol, and 0.2 mg/mL BSA prior to use. A coupled assay was used to measure TOP2-catalyzed ATP hydrolysis in vitro[37] in Costar 96-well plates (Corning Incorporated). […] Reaction plates were pre-warmed to 30 °C for 5 min and ATP was added last to initiate the reaction. The reaction plate was placed in a CLARIOstarPlus plate reader (BMG Labtech) to measure NADH fluorescence at 30 °C every 30 s over 120 cycles using a 340-60 excitation filter and a 480-100 emission filter. Background fluorescence signals calculated from wells containing no ATP were subtracted from each measurement. The slope of NADH fluorescence decay in each well was calculated using the MARS software (BMG Labtech) and reaction wells that lacked topoisomerase inhibitor to account for photobleaching of NADH fluorescence served as background subtraction. Each presented data point was obtained from distinct sample. Values were normalized to untreated controls and plotted as a function of inhibitor concentration to determine IC50 values using Prism 9 (GraphPad).

[2] = target: T2, recombinant human TOP2B (Homo sapiens, UniProt Q02880); assay: In vitro ATPase activity of TOP2B (coupled assay); type: biochemical
T2 construct: Using recombinant full-length human TOP2A and TOP2B enzymes; YFP (N, cleaved yes); made in house; host or cells: HEK293F
Protocol: as §1

[3] = system: neonatal rat ventricular cardiomyocytes (NVCM); assay: Protection against DAU-induced cytotoxicity (LDH release) in NVCM; type: cell-based; parameters: key to Suppl.Fig.3 DAU-induced cytotoxicity (LDH release) in NVCM, mean of independent replicates / LDH release (DAU-induced cytotoxicity), mean of independent replicates: % of total LDH activity
Protocol: (§2) The protective effects of the BNS-22 and newly prepared compounds were evaluated using primary cultures of neonatal rat cardiomyocytes isolated in house as previously described. Hearts isolated from 1- to 3-day-old Wistar rats were minced in buffer (1.2 mM MgSO4 · 7H2O, 116 mM NaCl, 5.3 mM KCl, 1.13 mM NaH2PO4 · H2O, 20 mM 4-(2-hydroxyethyl)-1-piperazine ethanesulfonic acid (HEPES), glucose 1 mg/mL) on ice, then serially digested (20 min, six repetitions) at 37 °C with collagenase type II (60 U/mL, Gibco). After 2 h pre-plating in a 150 mm Petri dish per approximately 20 hearts to minimize non-myocyte contamination, cells were plated in 24-well gelatin-coated plates at a density of 400,000 cells per well. Cells were cultured at 37 °C and 5% CO2 in Dulbecco’s modified Eagle medium (DMEM)/ F12 culture medium supplemented with 10% horse serum, 5% fetal bovine serum (FBS), 20 mM sodium pyruvate, 50 U/mL penicillin, and 50 μg/mL streptomycin. Freshly isolated cells were left for 40 h to attach and form a culture of spontaneously beating cardiomyocytes, then the medium was changed to DMEM/F12 medium supplemented with 5% fetal bovine serum, 20 mM sodium pyruvate, 50 U/mL penicillin, and 50 μg/mL streptomycin. For the experiments, the medium was changed to serum- and pyruvate-free DMEM/F12 with 50 U/mL penicillin and 50 μg/mL streptomycin. Cardiomyocytes were pretreated with BNS-22 or new compounds for 3 h and then coincubated with DAU (1.2 µM) for another 3 h. After the DAU treatment period, the culture medium was exchanged for the drug-free DMEM/F12 with 50 U/mL penicillin and 50 μg/mL streptomycin for the 48 h follow-up. Experiments to determine the inherent toxicity of each compound studied follow the same schedule, only no DAU was added. Subsequently, the culture medium sample was taken from each well for evaluation of lactate dehydrogenase (LDH) activity. The total LDH activity of each sample for normalization was measured after 1 h of incubation at 37 °C in lysis buffer (0.1 M potassium phosphate, 1% Triton X-100, 1 mM dithiothreitol (DTT), 2 mM EDTA, pH 7.8, 15 min in RT). All samples were immediately analyzed in Tris HCl buffer (pH 8.9) containing 35 mM lactic acid and 5 mM NAD^+. The rate of NAD^+ reduction was monitored spectrophotometrically at 340 nm for 2 min. The slope of the linear region was calculated, and the results were expressed as a percentage of the total LDH. Each presented data point was obtained from distinct sample.

[4] = system: neonatal rat ventricular cardiomyocytes (NVCM); assay: Inherent toxicity (LDH release) in NVCM; type: cell-based; parameters: key to LDH release (inherent toxicity), mean of independent replicates: % of total LDH activity; details: NVCM, Suppl.Fig.4
Protocol: as §2

[5] = target: T3, YFP-TOP2A (Homo sapiens, UniProt P11388); assay: FRAP analysis, YFP-TOP2A in HEK293F cells; type: cell-based; details: 15 min pre-incubation
T3 construct: Using recombinant full-length human TOP2A and TOP2B enzymes; expressed in transfected cells; host or cells: HEK293F
Protocol: (§3) HEK293F cells were transfected with DNA plasmids encoding yellow-fluorescent protein (YFP)-TOP2A or YFP-TOP2B (the same DNA constructs for mammalian protein expression and purification) using Lipofectamine 2000 (Thermo Fisher Scientific). Cells were cultured for 24 h post transfection and YFP signals were confirmed prior to FRAP experiments. Transfected cells were plated on glass-bottomed culture dishes (Matsunami) and rested overnight. The next day, each dish was pre-incubated with the indicated inhibitor treatment or DMSO control for 15 min prior to FRAP experiment. Each set of experiments was repeated on at least two different days using newly transfected cells each time. Live-cell imaging was done using a LSM 980 microscope (Carl Zeiss Microscopy, LLC). YFP signal was excited at 508 nm at 2% laser power and detected through a 516–604 nm range. A small area within the nucleus (purple box) is manually selected for fluorescence bleaching at 100% laser power for 50 iterations. Inhibition of TOP2 by obex inhibitors was detected by impairment in fluorescence recovery at 15 s post bleaching, as a lack of inhibition allows for TOP2 diffusion throughout the nucleus.

[6] = target: T4, YFP-TOP2B (Homo sapiens, UniProt Q02880); assay: FRAP analysis, YFP-TOP2B in HEK293F cells; type: cell-based; details: 15 min pre-incubation
T4 construct: Using recombinant full-length human TOP2A and TOP2B enzymes; expressed in transfected cells; host or cells: HEK293F
Protocol: as §3

[7] = target: T5, TOP2A-DNA covalent complex (Homo sapiens, UniProt P11388); assay: RADAR assay, etoposide-induced TOP2A-DNA covalent complex in HEK293F cells; type: cell-based; details: etoposide 5 μM alone; independent replicates
T5 construct: endogenous in cells; host or cells: HEK293F
Protocol: (§4) HEK293F cells were plated at 3 × 10^5 cells per well and grown overnight. […] Upon removal of media, cells in each well were immediately lysed with 750 µL DNAzol (Molecular Research Center, Inc.) and the DNA was precipitated by addition of 375 µL of 100% ethanol. This step was then repeated to eliminate protein aggregates. Precipitate from each sample was pelleted via centrifugation at 4 °C and max speed for 5 min. The pellets were washed twice with buffer containing 20 mM Tris pH 7.5, 1 mM EDTA pH 8.0, 50 mM NaCl, 50% EtOH, and at the end of each wash, centrifugation at 4000 × g for 2 min was repeated to isolate the DNA pellets. The pellets were washed in 75% EtOH and then collected by centrifugation at 4 °C and max speed for 5 min. The supernatant was removed via pipetting, and the remaining pellets were air dried for 5 min before 50 µL 8 mM NaOH and 0.1% Tween-20 was added to each pellet. Once no visible precipitate remained, each mixture was supplemented with 5 µL of Benzonase buffer containing 500 mM Tris pH 8.0, 10 mM MgCl2, 1/1000 Roche complete protease inhibitor cocktail (Millipore Sigma) and 40 units Benzonase (Millipore Sigma) followed by 30 to 60 min incubation at 37 °C until the pellets were fully dissolved. The DNA content from each sample was quantified on a nanodrop, and 10 µg of DNA was diluted to a final volume of 200 µL in 8 mM NaOH and 0.1% Tween. The samples were applied over the Whatman Minifold I dot blot apparatus (Cytiva) and collected on a PVDF membrane (Thermo Fisher Scientific). The membrane was washed three times with 8 mM NaOH and 0.1% Tween-20 solution prior to removal and blocking with the same wash solution containing 1 mg/mL BSA. Western blotting was carried out on an iBind (Thermo Fisher Scientific) and TOP2 proteins were detected using isoform-specific antibody against full length TOP2A (1:250 dilution; HT2A21, Inspiralis) and TOP2B (1:500 dilution; 611493, BD Biosciences) and visualized with anti-rabbit (1:1000 dilution; 926-68071, LI-COR Bio) and anti-mouse (1:1000 dilution; 926-32210, LI-COR Bio) secondary antibodies in iBind running buffer. The blots were imaged on a LI-COR Odyssey Fc and analysed using ImageStudio. Each presented data point was obtained from distinct sample.

[8] = target: T6, TOP2B-DNA covalent complex (Homo sapiens, UniProt Q02880); assay: RADAR assay, etoposide-induced TOP2B-DNA covalent complex in HEK293F cells; type: cell-based; details: etoposide 5 μM alone; independent replicates
T6 construct: endogenous in cells; host or cells: HEK293F
Protocol: as §4

T5 sequence (P11388 whole entry, one chain of several): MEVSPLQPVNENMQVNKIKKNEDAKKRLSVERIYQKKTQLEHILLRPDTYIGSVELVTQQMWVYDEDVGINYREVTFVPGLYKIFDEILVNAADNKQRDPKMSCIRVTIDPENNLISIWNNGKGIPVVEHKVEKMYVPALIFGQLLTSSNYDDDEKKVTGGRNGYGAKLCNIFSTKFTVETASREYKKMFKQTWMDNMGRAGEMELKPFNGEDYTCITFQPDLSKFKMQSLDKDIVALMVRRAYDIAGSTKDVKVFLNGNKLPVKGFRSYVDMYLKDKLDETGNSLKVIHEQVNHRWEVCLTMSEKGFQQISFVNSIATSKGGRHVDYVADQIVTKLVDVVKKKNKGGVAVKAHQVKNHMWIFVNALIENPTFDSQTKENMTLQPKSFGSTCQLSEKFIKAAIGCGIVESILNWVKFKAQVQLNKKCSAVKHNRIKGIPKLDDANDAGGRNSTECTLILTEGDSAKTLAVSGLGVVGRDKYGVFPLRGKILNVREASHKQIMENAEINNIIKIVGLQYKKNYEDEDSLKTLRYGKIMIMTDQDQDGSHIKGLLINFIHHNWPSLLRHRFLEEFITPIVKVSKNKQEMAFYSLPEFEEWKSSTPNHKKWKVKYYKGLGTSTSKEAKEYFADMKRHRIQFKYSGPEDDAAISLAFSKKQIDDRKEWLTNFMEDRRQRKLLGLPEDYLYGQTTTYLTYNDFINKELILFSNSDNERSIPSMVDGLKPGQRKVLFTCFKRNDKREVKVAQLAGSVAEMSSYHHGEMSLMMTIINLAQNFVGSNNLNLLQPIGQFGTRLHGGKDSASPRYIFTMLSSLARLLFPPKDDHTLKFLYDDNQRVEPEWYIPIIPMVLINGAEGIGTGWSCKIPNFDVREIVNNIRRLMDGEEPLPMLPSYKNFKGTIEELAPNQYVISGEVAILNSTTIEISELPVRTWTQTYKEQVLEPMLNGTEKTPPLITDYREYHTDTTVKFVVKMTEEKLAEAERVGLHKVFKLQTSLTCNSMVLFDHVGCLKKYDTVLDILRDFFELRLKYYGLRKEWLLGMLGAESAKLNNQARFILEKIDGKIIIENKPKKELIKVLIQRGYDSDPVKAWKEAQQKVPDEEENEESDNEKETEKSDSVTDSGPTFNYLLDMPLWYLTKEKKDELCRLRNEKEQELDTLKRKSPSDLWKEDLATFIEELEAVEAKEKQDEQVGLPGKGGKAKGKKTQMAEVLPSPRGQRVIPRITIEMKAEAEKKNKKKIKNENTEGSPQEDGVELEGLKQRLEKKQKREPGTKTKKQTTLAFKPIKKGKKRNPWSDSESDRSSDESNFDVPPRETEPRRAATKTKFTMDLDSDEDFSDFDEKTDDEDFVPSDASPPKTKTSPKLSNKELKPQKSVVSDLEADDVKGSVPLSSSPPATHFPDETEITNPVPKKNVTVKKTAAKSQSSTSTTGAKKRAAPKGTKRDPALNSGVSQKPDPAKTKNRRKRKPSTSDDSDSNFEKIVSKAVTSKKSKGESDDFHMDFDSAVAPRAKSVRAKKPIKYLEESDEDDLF
T6 sequence (Q02880 2-1626 limits assumed, one chain of several): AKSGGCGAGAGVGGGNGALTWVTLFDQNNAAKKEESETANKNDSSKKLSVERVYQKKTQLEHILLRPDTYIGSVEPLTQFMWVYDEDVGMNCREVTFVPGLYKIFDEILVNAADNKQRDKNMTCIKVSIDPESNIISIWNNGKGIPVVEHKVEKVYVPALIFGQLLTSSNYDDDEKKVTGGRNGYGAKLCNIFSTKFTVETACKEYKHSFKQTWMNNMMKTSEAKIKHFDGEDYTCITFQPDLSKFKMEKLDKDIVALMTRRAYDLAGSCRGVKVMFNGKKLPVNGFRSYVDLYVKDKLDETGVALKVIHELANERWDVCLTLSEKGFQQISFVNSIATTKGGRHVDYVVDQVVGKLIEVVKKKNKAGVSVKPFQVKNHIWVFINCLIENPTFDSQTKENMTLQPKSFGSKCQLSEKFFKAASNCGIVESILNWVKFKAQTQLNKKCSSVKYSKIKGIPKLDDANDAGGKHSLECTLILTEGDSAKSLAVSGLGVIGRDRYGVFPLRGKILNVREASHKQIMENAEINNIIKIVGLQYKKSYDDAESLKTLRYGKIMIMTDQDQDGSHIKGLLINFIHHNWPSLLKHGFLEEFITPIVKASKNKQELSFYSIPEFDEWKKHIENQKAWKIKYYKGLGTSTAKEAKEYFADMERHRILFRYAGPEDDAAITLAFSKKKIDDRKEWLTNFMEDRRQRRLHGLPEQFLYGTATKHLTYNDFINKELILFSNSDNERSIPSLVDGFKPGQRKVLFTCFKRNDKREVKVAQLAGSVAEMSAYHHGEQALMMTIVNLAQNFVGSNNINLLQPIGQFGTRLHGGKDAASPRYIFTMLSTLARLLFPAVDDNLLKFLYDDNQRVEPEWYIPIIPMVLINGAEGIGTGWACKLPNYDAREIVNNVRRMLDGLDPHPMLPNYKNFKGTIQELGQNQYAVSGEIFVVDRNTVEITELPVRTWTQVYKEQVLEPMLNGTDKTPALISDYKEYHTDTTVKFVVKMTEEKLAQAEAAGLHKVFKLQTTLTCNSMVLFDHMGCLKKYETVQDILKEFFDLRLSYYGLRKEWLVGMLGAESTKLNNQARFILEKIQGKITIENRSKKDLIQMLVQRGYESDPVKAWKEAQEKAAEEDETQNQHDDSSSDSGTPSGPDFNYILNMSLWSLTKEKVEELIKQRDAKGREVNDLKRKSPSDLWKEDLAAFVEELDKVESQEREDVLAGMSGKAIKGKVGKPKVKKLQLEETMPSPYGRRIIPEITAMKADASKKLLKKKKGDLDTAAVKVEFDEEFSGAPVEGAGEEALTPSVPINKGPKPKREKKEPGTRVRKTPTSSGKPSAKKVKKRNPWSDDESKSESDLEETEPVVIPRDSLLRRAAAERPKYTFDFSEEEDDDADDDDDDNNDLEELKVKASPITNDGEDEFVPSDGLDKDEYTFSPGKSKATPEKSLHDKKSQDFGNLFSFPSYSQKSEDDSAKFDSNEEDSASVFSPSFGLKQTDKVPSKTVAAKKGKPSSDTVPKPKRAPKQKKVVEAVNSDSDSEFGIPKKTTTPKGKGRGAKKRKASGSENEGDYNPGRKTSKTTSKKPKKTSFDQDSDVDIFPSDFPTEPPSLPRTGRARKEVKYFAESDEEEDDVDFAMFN
T2 sequence (Q02880 1-1621 isoform Q02880-2): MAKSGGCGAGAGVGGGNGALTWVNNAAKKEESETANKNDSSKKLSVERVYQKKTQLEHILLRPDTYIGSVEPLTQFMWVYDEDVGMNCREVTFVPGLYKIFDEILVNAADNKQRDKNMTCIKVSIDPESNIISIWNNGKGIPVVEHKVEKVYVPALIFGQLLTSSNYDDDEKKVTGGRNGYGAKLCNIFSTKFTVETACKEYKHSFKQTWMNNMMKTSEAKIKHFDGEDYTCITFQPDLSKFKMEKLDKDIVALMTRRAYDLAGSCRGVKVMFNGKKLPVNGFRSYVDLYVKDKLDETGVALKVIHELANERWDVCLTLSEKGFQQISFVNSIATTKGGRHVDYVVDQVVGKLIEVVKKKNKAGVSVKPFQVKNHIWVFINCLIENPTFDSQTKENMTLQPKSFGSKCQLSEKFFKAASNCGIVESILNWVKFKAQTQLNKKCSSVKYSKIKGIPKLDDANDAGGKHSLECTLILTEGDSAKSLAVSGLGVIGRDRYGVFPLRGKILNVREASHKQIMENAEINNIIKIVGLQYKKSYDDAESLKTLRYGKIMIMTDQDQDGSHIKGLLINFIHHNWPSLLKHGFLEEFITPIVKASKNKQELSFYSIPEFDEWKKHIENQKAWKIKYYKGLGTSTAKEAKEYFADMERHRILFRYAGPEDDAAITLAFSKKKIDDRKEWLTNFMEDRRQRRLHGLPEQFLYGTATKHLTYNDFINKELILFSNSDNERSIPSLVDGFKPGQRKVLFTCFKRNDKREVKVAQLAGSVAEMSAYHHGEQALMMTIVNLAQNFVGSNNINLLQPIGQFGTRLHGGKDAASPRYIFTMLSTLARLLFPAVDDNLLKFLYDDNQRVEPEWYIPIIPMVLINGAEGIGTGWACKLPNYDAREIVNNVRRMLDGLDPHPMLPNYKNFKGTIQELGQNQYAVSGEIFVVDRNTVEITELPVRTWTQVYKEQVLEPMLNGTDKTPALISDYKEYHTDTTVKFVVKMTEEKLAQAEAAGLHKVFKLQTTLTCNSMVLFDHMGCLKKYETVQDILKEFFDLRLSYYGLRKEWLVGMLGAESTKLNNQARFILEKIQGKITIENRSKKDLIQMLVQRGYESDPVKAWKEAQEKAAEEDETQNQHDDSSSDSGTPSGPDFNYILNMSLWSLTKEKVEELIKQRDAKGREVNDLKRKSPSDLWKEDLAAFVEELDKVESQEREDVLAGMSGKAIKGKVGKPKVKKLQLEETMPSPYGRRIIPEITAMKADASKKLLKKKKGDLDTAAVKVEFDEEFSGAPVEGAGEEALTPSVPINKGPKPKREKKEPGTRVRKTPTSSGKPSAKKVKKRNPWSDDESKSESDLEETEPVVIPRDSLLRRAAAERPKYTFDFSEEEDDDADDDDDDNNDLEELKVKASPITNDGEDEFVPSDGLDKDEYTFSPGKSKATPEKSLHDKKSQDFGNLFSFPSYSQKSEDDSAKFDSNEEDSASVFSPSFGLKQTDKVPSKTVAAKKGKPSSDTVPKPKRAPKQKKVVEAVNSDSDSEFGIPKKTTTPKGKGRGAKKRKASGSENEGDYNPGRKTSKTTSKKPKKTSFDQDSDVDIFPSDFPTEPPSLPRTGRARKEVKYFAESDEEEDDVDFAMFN
T1 sequence (P11388 whole entry): as the sequence (P11388 whole entry, one chain of several) above
T3 sequence (P11388 whole entry): as the sequence (P11388 whole entry, one chain of several) above
T4 sequence (Q02880 1-1621 isoform Q02880-2): as the sequence (Q02880 1-1621 isoform Q02880-2) above

Q: Which results are given for `CCCc1cc(=O)oc2c(C(=O)N3CCCc4ccccc43)c(O)ccc12` [2c]?
A: IC50 [1]: 0.69 µM; relative inhibition of TOP2A vs TOP2B ([2]; ATPase): inhibited TOP2A and TOP2B with equal efficacy; SRbeta (SRTOP2B), TOP2 ATPase activity ([2]; TOP2A IC50 divided by TOP2B IC50): 1.0; IC50 ([2]; n=3): 0.66 µM; minimal effective concentration ([3]; Rattus norvegicus, Cardiomyocyte, NVCM, protection against DAU 1.2 µM, n=4, read-out: LEC = lowest effective concentration): 10 µM; Suppl.Fig.3 DAU-induced cytotoxicity (LDH release) in NVCM, mean of independent replicates ([3]; compound 1 µM + DAU 1.2 µM): 33.3224; Suppl.Fig.3 DAU-induced cytotoxicity (LDH release) in NVCM, mean of independent replicates ([3]; compound 10 µM + DAU 1.2 µM): 29.0836; Suppl.Fig.3 DAU-induced cytotoxicity (LDH release) in NVCM, mean of independent replicates ([3]; compound 30 µM + DAU 1.2 µM): 25.5275; Suppl.Fig.3 DAU-induced cytotoxicity (LDH release) in NVCM, mean of independent replicates ([3]; compound 100 µM + DAU 1.2 µM): 35.3978; LDH release (inherent toxicity), mean of independent replicates ([4]; compound alone 1 µM): 16.6801; LDH release (inherent toxicity), mean of independent replicates ([4]; compound alone 10 µM): 16.3877; LDH release (inherent toxicity), mean of independent replicates ([4]; compound alone 30 µM): 17.2005; LDH release (inherent toxicity), mean of independent replicates ([4]; compound alone 100 µM): 29.603; fluorescence recovery of YFP-TOP2A (FRAP) [5]: inhibits fluorescence recovery; fluorescence recovery of YFP-TOP2B (FRAP) [6]: inhibits fluorescence recovery

Q: What does the source list for `COc1cc([C@@H]2c3cc4c(cc3[C@@H](O[C@@H]3O[C@@H]5CO[C@@H](C)O[C@H]5[C@H](O)[C@H]3O)[C@H]3COC(=O)[C@H]23)OCO4)cc(OC)c1O` [etoposide, reference compound]?
A: TOP2A spot intensity [7]: 63.37 and 136 and 84.27 and 127.1 and 89.2; TOP2B spot intensity [8]: 173.9 and 77.69 and 59.37 and 61.46
